SMILES strings stand for the structures.

The nature of assay [1]: Static ozone deterioration test, Example 1 natural rubber compound (pale crape No. 1). The following applies: Table 2, static, 20 % elongation, 2 parts added, ozone 35 ± 5 pphm, 50 ± 10°C. The procedure: (§1) Two parts of each of the present compounds in Table 1 (sample numbers A to H) and, as a counterpart, Antiozonant AFD (a registered trademark of Bayer Co. Ltd.) represented by sample number I were individually mixed thoroughly with the following rubber compound,
(§2) and each resulting mixture was well milled on a 2-roll mill of 10 inches in diameter and then vulcanized thereon at 140°C. for 20 minutes. A blank test was also carried out at the same time for comparison, using the rubber compound alone above mentioned.
(§3) The static and dynamic ozone deterioration tests were made on the test pieces on the Ozone Weather-O-Meter produced by Toyo Rika Co. Ltd. In the static test, the Dumbbel No. 2 test pieces were kept at a 20 % elongation in the stream of ozone during the test, and during the latter test, the test pieces were given repeated elongation of from 0 up to 20 % once a second in the stream of ozone.
(§4) The tests were carried out under the condition that the ozone concentration be 35 ± 5 pphm and the test temperature be 50 ± 10°C., and the time required for the generation of visually observable cracks on the surface of the vulcanized rubber was taken as a crack-generating time which was used as the measure of ozone-resistance.

A short description of assay [2]: Dynamic ozone deterioration test, Example 1 natural rubber compound (pale crape No. 1). The following applies: Table 3, dynamic, repeated elongation 0 up to 20 % once a second, 2 parts added, ozone 35 ± 5 pphm, 50 ± 10°C. The procedure:
as §1, §2, §3, §4

The nature of assay [3]: Static ozone deterioration test, Example 2 SBR compound. The settings on record: Table 4, static, 20 % elongation, 2 parts added, ozone 35 ± 5 pphm, 50 ± 10°C. Here is the method: as §3, §4
(§5) Two parts of each of the present compounds in Table 1 (sample numbers A to H) and, as a counterpart, Antiozonant AFD represented by sample number I were individually mixed thoroughly with the following rubber compound,
(§6) and each resulting mixture was well milled on a 2-roll mill of 10 inches in diameter and then vulcanized thereon at 150°C. for 30 minutes. A blank test was also carried out at the same time for comparison, using the rubber compound alone above mentioned.

Assay [4] in a line: Dynamic ozone deterioration test, Example 2 SBR compound. The settings on record: Table 5, dynamic, repeated elongation 0 up to 20 %, 2 parts added, ozone 35 ± 5 pphm, 50 ± 10°C. The procedure:
as §3, §4, §5, §6

Assay [5] is described as follows: Static ozone deterioration test, Example 3 chloroprene rubber compound. The settings on record: Table 6, static, 20 % elongation, 1.5 parts added, ozone 90 ± 5 pphm, 50 ± 10°C. Here is the method:
as §3
(§7) be 50 ± 10°C., and the time required for the generation of visually observable cracks on the surface of the vulcanized rubber was taken as a crack-generating time which was used as the measure of ozone-resistance. […]
(§8) A blank test was also carried out at the same time for comparison, using the rubber compound alone above mentioned.

Assay [6] is described as follows: Dynamic ozone deterioration test, Example 3 chloroprene rubber compound. The following applies: Table 7, dynamic, repeated elongation 0 up to 20 %, 1.5 parts added, ozone 90 ± 5 pphm, 50 ± 10°C. The procedure:
as §3, §7, §8

Take `CC(C)SCCC#N` [B]: the Crack-generating time in assay [1] stood at 15 h; in assay [2] it was 16 h; in assay [3] it was 11 h; in assay [4] it was 14 h; in assay [5] it was 175 h; in assay [6], 185 h.
As to `CC(C#N)CSCC(C)C#N` (stereo not drawn) [C], the Crack-generating time in assay [1] came to 18 h; in assay [2], 20 h; in assay [3], 13 h; in assay [4], 18 h; in assay [5], 190 h; in assay [6], 210 h.
Consider `N#CCCCSCCCC#N` [D], for which the Crack-generating time was 19 h in assay [1]; 22 h in assay [2]; 15 h in assay [3]; 19 h in assay [4]; 195 h in assay [5]; 215 h in assay [6].
Take `N#CCCSCCC#N` [Sample A]: the Crack-generating time in assay [1] is 20 h; in assay [2] it was 24 h; in assay [3] it was 16 h; in assay [4], 21 h; in assay [5], 200 h; in assay [6], 220 h.
Regarding `CCC(CCCC#N)CSCC(CC)CCCC#N` (stereo not drawn) [E], the Crack-generating time in assay [1] is 16 h; in assay [2], 16 h; in assay [3], 11 h; in assay [4] it was 15 h; in assay [5], 180 h; in assay [6] it was 190 h.
Turning to `CCCCCCCCCCCCCCCCCCSCCC#N` [F], the Crack-generating time in assay [1] amounted to 14 h; in assay [2], 15 h; in assay [3], 10 h; in assay [4], 13 h; in assay [5], 170 h; in assay [6] it was 180 h.

For the origin of these results see US3956234A, “Inhibiting ozone deterioration of rubbers” (Sumitomo Chemical Company, Limited, priority 1973, dated 1976).
